# Laboratory results taken from patent US20150050682A1, “DIRECT ASSAY OF THIOREDOXIN REDUCTASE ACTIVITY” (University of Vermont and State Agricultural College, priority 2013, published 2015).
# Tests used:
# [1] = system: thioredoxin reductase (TR); assay: Selenocystine TR assay (SC-TR assay); assay type: biochemical, mouse; conditions: for Efficiency of reduction by TR: L- versus racemic selenocystine as substrate; for Inhibition of TR activity (NADPH turnover, A340): C10 whole cell lysates, FIG. 2B
# Protocol: Selenocystine TR assay. Cells were plated into 60 mm tissue culture dishes and the following day were washed with ice-cold 1× phosphate buffered saline (PBS) and lysed in the culture dish by adding either TE Buffer (50 mM Tris/HCl pH 7.5, 1 mM EDTA) or NP-40 lysis buffer (150 mM NaCl, 50 mM Tris pH 8.0, 1% NP-40, 1 μg/mL leupeptin, 1 μg/mL aprotinin, 1 mM NaF, 1 mM NaVO3, 1 mM PMSF) as indicated in the text. Cell lysates were scraped from culture dishes on ice and transferred to 1.5 mL microcentrifuge tubes. TE buffer lysates were sonicated at 4° C. for 30 sec with 1-2 sec pulses using a sonic dismembrator. TE and NP-40 lysates were centrifuged for 10 min at 14,000 rpm at 4° C. and protein concentrations of the supernatants were determined by reading the absorption at 595 nm of Bradford reagent. A total reaction volume of 100 μl was assembled in a clear 96-well round bottom microplate containing the following: (i) master mix containing 1 mM NADPH and 2 mM selenocystine (SC) in ddH2O (addition of 40 μl of master mix to 100 μl reaction volume yields final concentrations of 400 μM and 800 μM respectively), (ii) 25 μg or the largest practical amount of protein, (iii) TE or NP-40 lysis buffer. Controls for each sample included protein only control, protein and NADPH control, and protein and SC control. Control master mixes contained: (i) 2 mM NADPH in ddH2O (addition of 20 μl to 100 μl reaction volume yields final concentration of 400 μM), (ii) 2 mM SC prepared as described above (addition of 40 μl to 100 μl reaction volume yields final concentration of 800 μM).
# Each master mix was separately placed into a clean, sterile pipet basin and pipetted quickly into the wells of a 96-well microplate with a multichannel pipetter making sure to avoid bubbles. This approach was used in order that each sample was exposed to the master mix at the same time to ensure homogeneity of results. The plate was read in 30 sec intervals over a 20 min time period at 340 nm on a Synergy HT Microplate Reader™ (BioTek). Because the assay monitors the consumption of NADPH at 340 nm, an activity can be calculated by using Beer's Law and an extinction coefficient of 6,220 M^−1 cm^−1 for NADPH. The activity can be reported as mol NADPH consumed per min. Bradford assays for total protein concentration determination can be performed directly in each well of the 96-well plate. If this is done, then the activity can be reported as mol NADPH consumed per min per mg of total protein. For the data presented in FIGS. 2 and 5, 1 unit of TR activity is defined as the amount of TR that will consume 1 nmol of NADPH per min.
# [2] = system: TR1; assay: Immunoblot of TR1 expression after siRNA knockdown in C10 cells; assay type: cell-based, mouse; conditions: Western blot, FIG. 3E
# From the text: TR over-expression and gene silencing. Full length TR1 was amplified from pCMV6-XL4 vector by PCR using specific forward (5′-[…]-3′) and reverse (5′-[…]-3′) primers and subsequently cloned into pcDNA 3.1 mammalian expression vector. Insertion of WT-TR1 full-length cDNA, including the 3′ SECIS element, into pcDNA 3.1 was confirmed by sequencing using the appropriate forward and reverse primer sets (T7 Forward: BGH Reverse). WT-TR1 or empty pcDNA 3.1 vector were transfected into C10 cells according to manufacturer's protocol. Specific siRNA to TR1 (si-TR1, 5′-[…]-3′) and a control (“scramble”) RNA (5′-[…]-3′) were introduced into C10 cells following the manufacturers guidelines (Dharmacon).
# Immunoblotting. Equal protein amounts from cell lysates were separated on 10% gels by SDS-PAGE. Proteins were transferred to PVDF membrane for immunoblotting, and membranes then were blocked in 5% milk (Tris buffered saline with 0.1% Tween, TBST) for 1 hr at room temperature. Anti-TR1 (1:1000) anti-Trxl (1:2000) and anti-actin (1:5000) antibodies were diluted in 5% milk/TBST and incubated with membranes for 1 hr at room temperature. […] Membranes were washed 5× with TBST and HRP secondary antibodies were detected using Enhanced Chemiluminescent™ solution and collected on X-ray film.
# [3] = system: thioredoxin reductase (TR); assay: Discontinuous insulin end-point TR assay; assay type: biochemical, mouse; conditions: for Inhibition of TR activity: C10 whole cell lysates, end-point TR assay, FIG. 2A
# Protocol: Discontinuous insulin end-point assay. Cell lysates were prepared in TE buffer as described above and the sonicated lysates were centrifuged for 10 min at 14,000 rpm at 4° C. Supernatants were transferred to fresh 1.5 mL microcentrifuge tubes and protein concentrations were determined by a Bradford assay. A total reaction volume of […] was assembled by addition of 20 μL master mix to 20 μL of 25 μM E. coli Trx solution. The master mix contained 50 mM Tris/Cl pH 7.5, 1 mM EDTA, 900 μM NADPH (257 μM final), and 4.5 mg/mL insulin (1.3 mg/mL final). After addition of all of the components to a cuvette, the reactions were incubated at room temperature for 60 min and terminated by the addition of 930 μL of 6 M guanidine•HCL containing 1 mM 5,5′-dithio-bis(2-nitrobenzoic acid) (DTNB) solution prepared in ethanol; activity was detected by reading absorbance at 412 nm in a spectrophotometer. TR activity was determined by calculating the difference between identical samples +/− Trx. Here the activity is expressed as arbitrary units as determined by the raw A412 reading. Alternatively, the number of units can be calculated by using Beer's Law and an extinction coefficient of 13,600 M^−1 cm^−1 for the TNB anion. One unit of TR activity is the amount of enzyme catalyzing the reduction of 1 μM of DTNB per min (formation of 2 μmol TNB anion).
# [4] = target: T1, glutathione reductase (Homo sapiens, UniProt P00390); assay: Reduction of selenocystine by glutathione reductase in vitro; assay type: biochemical; conditions: same experimental conditions under which TR reduces selenocystine
# T1 sequence (P00390 44-522): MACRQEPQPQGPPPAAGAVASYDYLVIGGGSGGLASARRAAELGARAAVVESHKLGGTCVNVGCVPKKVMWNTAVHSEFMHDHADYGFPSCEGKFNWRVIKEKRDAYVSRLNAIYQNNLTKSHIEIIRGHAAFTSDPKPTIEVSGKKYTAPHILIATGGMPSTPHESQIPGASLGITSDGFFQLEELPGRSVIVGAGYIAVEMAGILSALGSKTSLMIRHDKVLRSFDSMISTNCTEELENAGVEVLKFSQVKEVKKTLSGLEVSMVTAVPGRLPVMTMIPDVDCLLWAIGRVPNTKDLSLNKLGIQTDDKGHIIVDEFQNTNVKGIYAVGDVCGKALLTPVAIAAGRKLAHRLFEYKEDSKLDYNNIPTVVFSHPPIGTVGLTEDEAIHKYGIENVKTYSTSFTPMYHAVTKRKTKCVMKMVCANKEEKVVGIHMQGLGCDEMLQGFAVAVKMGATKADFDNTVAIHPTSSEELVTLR
compound,measurement,setting,value
"N[C@@H](C[Se][Se]C[C@H](N)C(=O)O)C(=O)O (racemic) [racemic selenocystine, selenocystine]",Efficiency of reduction by TR,[1],equal efficiencies
N[C@@H](C[Se][Se]C[C@H](N)C(=O)O)C(=O)O [L-selenocystine],Efficiency of reduction by TR,[1],equal efficiencies
CC(=O)OC[C@H]1O[C@@H]([S-])[C@H](OC(C)=O)[C@@H](OC(C)=O)[C@@H]1OC(C)=O.CCP(CC)CC.[Au+] [auranofin],"Sensitivity of TR activity to inhibitor, TE buffer versus NP-40 buffer","[1]; lysates from treated C10 cells prepared in TE buffer or NP-40 lysis buffer, FIG. 4",equivalent
"siRNA: Specific siRNA to TR1 (si-TR1, 5′-CCAUAGAGGGCGAAUUUAAUU-3′) (listed as RNA, chemistry not given here)",TR activity after knockdown of TR1,"[1]; C10 cells transfected with siRNA, SC-TR assay, FIG. 3A",reduced TR activity below control levels
same,TR1 protein expression after knockdown,[2],reduced the expression of TR1 for up to 48 hrs
C=CC=O [acrolein],Inhibition of TR activity in cells over expressing TR1 and TR2,"[3]; C10 cells transfected with TR1 and TR2, TE buffer lysates, end-point assay, FIG. 2C",inhibited to an equal extent
same,Inhibition of TR activity,[3],inhibition of total TR activity
same,Inhibition of TR activity,[3]; listed as Acrolein,completely inhibits
same,Inhibition of TR activity in cells over expressing TR1 and TR2,"[1]; C10 cells transfected with TR1 and TR2, TE buffer lysates, SC-TR assay, FIG. 2D",inhibited to an equal extent
same,"Inhibition of TR activity (NADPH turnover, A340)",[1]; SC-TR assay,complete inhibition
same,"Inhibition of TR activity (NADPH turnover, A340)","[1]; SC-TR assay, listed as Acrolein",completely inhibits
N[C@@H](C[Se][Se]C[C@H](N)C(=O)O)C(=O)O [selenocystine],Reduction of substrate by glutathione reductase,[4],does not reduce
